According to patent US9512176B2, “Age inhibitors” (Centre National de la Recherche Scientifique, priority 2005, dated 2016):
Non-standard residues stand in square brackets, D forms with d. Residues, ends and D or L forms follow the SMILES beside them. Dap = NC[C@H](N)C(=O)O

Assays:
ribonuclease A [1] = assay: SDS PAGE electrophoresis of ribonuclease A incubated with methylglyoxal and inhibitor; assay type: biochemical
Description: (§1) Ribonuclease A and lysozyme (10 mg/ml) are incubated in the presence of methylglyoxal (10 mM) or in the presence of methylglyoxal and one of the inhibitors according to the present invention in an equimolar quantity at 37° C. After 48 hours of incubation, the proteins are analyzed by polyacrylamide gel electrophoresis (8%-16% SDS PAGE gel).
The AGE inhibitors according to the present invention, namely L-DAPA-L-Leu (example 1) and L-DAPA-L-Ile (example 18), or AG (10 mM) are incubated with MG and ribonuclease A for […] at 37° C.

[2] = Battah et al. 2002; cited from earlier work
ribonuclease A [3] = assay: Enzymatic activity of ribonuclease A after treatment with methylglyoxal and inhibitors (methylene blue RNA staining); assay type: biochemical; conditions: ribonuclease A treated with methylglyoxal (MG) + inhibitor in equimolar quantity, 37° C.; control RNase 100, RNase + methylglyoxal 10.11%
Description: as §1
The enzymatic activity of ribonuclease A after treatment with methylglyoxal and the various inhibitors according to the present invention is measured using the methylene blue RNA staining technique of Greiner-Stöffele et al. (Anal. Biochem. (1996) 240, 24).

EA.hy 926 cell line = assay: Growth of EA.hy 926 endothelial cells with MG scavengers and/or methylglyoxal (MTT); assay type: cell-based, human; conditions: for viability at 1000 µM: Homo sapiens, EA.hy 926, scavenger 1 mM + methylglyoxal 600 μM, relative to untreated control cells, MG alone 24, read-out: Cells + MG scavengers + Methylglyoxal (B); for viability at 1000 µM / Cells + MG scavengers (A): 48 hours, mean of 3 experiments; for Difference (B) − (A): Table 2, cells with scavenger + MG minus cells with scavenger alone; for Cells + MG scavengers (A): scavenger 1 mM, no methylglyoxal, number of cells relative to untreated control cells; for effect against suppression of cell growth by MG: scavenger + methylglyoxal
Description: The cells used for the test are from the EA.hy 926 cell line, which are endothelial cells obtained by the hybridization of human umbilical vein endothelial cells (HUVECs) with lung cancer cells (A549). The EA.hy 926 endothelial cells are incubated in Dulbecco's modified Eagle's Medium (DMEM) enriched with 10% fetal calf serum. The cells are incubated in 12-well plates. Each well initially contains 100,000 cells. Cell growth is achieved by incubating the cells in 2 ml of culture medium after adding or not adding the various potential inhibitors (1 mM) and/or methylglyoxal (600 μM) for 48 hours at 37° C. in a moist atmosphere with 5% CO2.
The number of cells is evaluated in the following way:
The cells are stained using the (4,5-dimethylthiazol-2-yl)-2,5-diphenyltetrazolium bromide (MTT) assay. MTT penetrates in the cell where it is converted into formazan. The quantity of formazan formed is proportional to the number of living cells.
The results are expressed as a relative percentage of the number of cells after treatment compared to the number of control cells without treatment [100*OD (treated cells)/OD (control cells)]. Detection is carried out by UV/visible spectrophotometry at 570 nm.
Principle: MTT (yellow) penetrates the cell and is converted into an insoluble blue compound, formazan, by cleavage of its tetrazolium rings by the mitochondrial dehydrogenase enzymes of living cells. Formazan is solubilized by isopropanol. The number of cells is proportional to the quantity of formazan formed and its absorbance.

Human insulin = assay: Modification of insulin by methylglyoxal (HPLC); assay type: biochemical; conditions: insulin 0.034 mM, methylglyoxal 3.4 mM, scavenger 4.08 mM, pH 7.45, 37° C.
Description: FIG. 1 presents the comparative effects of dicarbonyl scavengers in the form of dihydrochloride according to the present invention and the comparison with DAPA on the modification of insulin (Ins) by methylglyoxal (MG). The percentage of insulin is indicated following incubation with methylglyoxal in the presence or absence of dicarbonyl scavengers. Insulin (0.034 mM) is incubated in vitro in a 10 mM phosphate buffer, pH 7.45 (containing 0.1 M NaCl) with methylglyoxal (3.4 mM) in the presence of dicarbonyl scavengers (4.08 mM) for 21 hours at 37° C. Insulin concentration is measured by HPLC (same conditions as in FIG. 3).
FIGS. 3 to 8 present the results obtained by HPLC for two compounds according to the present invention, L-DAPA-L-Leu (example 1) and L-DAPA-L-Val (example 23), on insulin modifications induced by methylglyoxal. It can be observed that these modifications are prevented. The HPLC conditions are as follows: C-18, Symmetry 300 (4.6×250 mm) column, injection volume 100 μl of reaction mixture; flow 1 ml/min; temperature 40° C.; solvent A: H2O+0.1% TFA; solvent B: 60/40 CH3CN/H2O+0.1% TFA; linear gradient of 50% B to 55% B in 15 minutes; detection: UV at 215 nm: PDA (chromatograms extracted at 220 nm).
Human insulin (Ins) is incubated with methylglyoxal (MG) under physiological conditions. After 24 hours, the insulin is completely modified, as illustrated in FIG. 1 (Ins+MG).
On the other hand, insulin is incubated with methylglyoxal in the presence of an equimolar quantity of the AGE inhibitors according to the present invention under physiological conditions.

[4] = Mutagenicity of DAPA (statement, no method given); conditions: no test described
RNase A = RNase A modifications induced by methylglyoxal (HPLC); assay type: biochemical; conditions: RNase A 0.08 mM, methylglyoxal 32 mM, compound 38 mM, 21 hours at 37° C.
Description: FIGS. 11 to 13 present the results obtained by HPLC for three compounds according to the present invention, L-DAPA-L-Ile (example 18), L-DAPA-L-Val (example 23) and L-DAPA-L-Leu (example 1), on RNase A modifications induced by methylglyoxal. HPLC conditions are as follows: C-18, Symmetry 300 (4.6×250 mm) column, injection volume 100 μl of reaction mixture diluted to 1/10; flow 1 ml/min; temperature 40° C.; solvent A: H2O+0.1% TFA; solvent B: 60/40 CH3CN/H2O+0.1% TFA; linear gradient of 20% B to 80% B in 20 minutes; detection: UV at 215 nm: PDA (chromatograms extracted at 215 nm).

somatostatin-14 = assay: Somatostatin-14 modifications induced by methylglyoxal (HPLC); assay type: biochemical; conditions: somatostatin-14 0.03 mm, methylglyoxal 3.6 mM, compound 4.3 mM, 24 hours at 37° C.
Description: FIGS. 9 and 10 present the results obtained by HPLC for two compounds according to the present invention, L-DAPA-L-Leu (example 1) and L-DAPA-L-Val (example 23), on somatostatin-14 modifications induced by methylglyoxal. HPLC conditions are as follows: C-18, Symmetry 300 (4.6×250 mm) column, injection volume 100 μl of reaction mixture; flow 1 ml/min; solvent A: H2O+0.1% TFA; solvent B: 80/20 CH3CN/H2O+0.1% TFA; linear gradient: from 20% B to 60% B in 15 minutes and isocratic from 60% B for 10 minutes; ambient temperature; detection: PDA (chromatograms extracted at 215 nm).
In these figures, (a) represents the results of somatostatin-14 alone; (b) represents the results of somatostatin-14+methylglyoxal; (c) represents the results of somatostatin-14+methylglyoxal+L-DAPA-L-Val (example 23) and (d) represents the results of somatostatin-14+methylglyoxal+L-DAPA-L-Leu (example 1).

[5] = system: seven strains of Salmonella (six mixed strains, strain TA98); assay: Ames test with and without human liver S9 fractions; assay type: cell-based; design: key to Six mixed strains / Strain TA98: −: non-mutagenic; +: mutagenic; conditions: for Six mixed strains / Strain TA98: mixture with methylglyoxal, 10/1/0.1 μM
Description: An Ames test was performed with L-DAPA-L-Leu (example 1) and L-DAPA-L-Val (example 23) alone and in combination with methylglyoxal on human liver S9 fractions and on seven strains of Salmonella.
The concentrations used in the Ames test were as follows: • L-DAPA-L-Leu alone or L-DAPA-L-Val alone: 10 μM, 1 μM and 0.1 μM. • L-DAPA-L-Leu/methylglyoxal mixture or L-DAPA-L-Val/methylglyoxal mixture: 10 μM, 1 μM and 0.1 μM. • Methylglyoxal: 10 μM.

lysozyme = assay: SDS PAGE electrophoresis of lysozyme incubated with methylglyoxal and inhibitor; assay type: biochemical; conditions: lysozyme 10 mg/ml, methylglyoxal 10 mM, inhibitor equimolar, 37° C., 48 hours
Description: as §1

Cells + MG scavengers (A) (EA.hy 926 cell line) [%] | Compound | Enzymatic activity (%) (ribonuclease A [3]) | viability at 1000 µM (EA.hy 926 cell line) [%] | Difference (B) − (A) (EA.hy 926 cell line) | effect against suppression of cell growth by MG (EA.hy 926 cell line) | modification of insulin by methylglyoxal (Human insulin) | cell survival when incubated with MG (EA.hy 926 cell line) [%] | further results
97 | N=C(N)NN [Aminoguanidine, aminoguanidine, reference compound] | 70.52 | 92 | −5 | suppresses this process in a spectacular manner |  |  | protecting effect against structural modifications of ribonuclease A induced by MG, compared with the inhibitors of the invention (ribonuclease A [1]; 10 mM, 40 hours at 37° C.): much less effective; better scavenger of methylglyoxal compared with metformin (factor) [2]: 450
83 | NCC(N)C(=O)O [D-DAPA, 2,3-diaminopropionic acid, reference compound] | 20.32 | 68 | −15 |  | prevents the modification of insulin by MG | 68 | mutagenicity [4]: appears to be mutagenic; toxicity with respect to EA cells (EA.hy 926 cell line; compound alone, 1 mM): cytotoxicity is higher

Compound | Cells + MG scavengers (A) (EA.hy 926 cell line) [%] | Enzymatic activity (%) (ribonuclease A [3]) | viability at 1000 µM (EA.hy 926 cell line) [%] | Difference (B) − (A) (EA.hy 926 cell line) | effect against suppression of cell growth by MG (EA.hy 926 cell line) | modification of insulin by methylglyoxal (Human insulin) | cell survival when incubated with MG (EA.hy 926 cell line) [%] | further results
CC(C)[C@H](NC(=O)[C@@H](N)CN)C(=O)O [example 23, L-DAPA-L-Val.2HCl] (H-[Dap]-Val-OH) | 94 | 90.77 | 93 | −1 | same trend | prevented | 93 | RNase A modifications induced by methylglyoxal (RNase A): prevent the modifications to RNase A; protection from structural modifications (dimer form) caused by methylglyoxal (ribonuclease A [1]; ribonuclease A 10 mg/ml, methylglyoxal 10 mM, inhibitor equimolar, 37° C., 48 hours): provides protection; difference between number of cells growing with compound and with MG and compound (EA.hy 926 cell line; values in brackets): −3; somatostatin-14 modifications induced by methylglyoxal (somatostatin-14): prevent the modifications induced by methylglyoxal; Six mixed strains ([5]; Human S9: No): −; Strain TA98 ([5]; Human S9: No): −; Six mixed strains ([5]; Human S9: Yes (metabolites)): −; Strain TA98 ([5]; Human S9: Yes (metabolites)): −; mutagenicity ([5]; alone or in combination with methylglyoxal, TA98, mixed strains, human liver S9 fractions): neither substance (L-DAPA-L-Leu or L-DAPA-L-Val) was mutagenic; protection from structural modifications (dimer form) caused by methylglyoxal (lysozyme): provides protection
